Test results from PubChem BioAssay (NCI).
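Briefly, cells in 96-well plates were exposed to five compound concentrations for 48 h, and endpoints were estimated by linear interpolation. TGI: concentration producing complete growth inhibition.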

Tests used:
Experiment in all cases: inhibition of tumour cell growth, NCI panel, 48 h
MALME-3M melanoma = system: MALME-3M melanoma
NCI-H460 lung = system: NCI-H460 lung
HL-60(TB) leukemia = system: HL-60(TB) leukemia
HOP-62 NSCLC = system: HOP-62 NSCLC
CAKI-1 renal = system: CAKI-1 renal
OVCAR-3 ovarian = system: OVCAR-3 ovarian
XF 498 CNS = system: XF 498 CNS
A549 NSCLC = system: A549 NSCLC
RPMI-8226 leukemia = system: RPMI-8226 leukemia
HCC-2998 colon = system: HCC-2998 colon
NCI-H522 lung = system: NCI-H522 lung
MOLT-4 leukemia = system: MOLT-4 leukemia
SNB-75 CNS = system: SNB-75 CNS
OVCAR-5 ovarian = system: OVCAR-5 ovarian
SR leukemia = system: SR leukemia
NCI-H226 lung = system: NCI-H226 lung
ACHN renal = system: ACHN renal
OVCAR-4 ovarian = system: OVCAR-4 ovarian
SF-295 CNS = system: SF-295 CNS
SW-620 colon = system: SW-620 colon
UO-31 renal = system: UO-31 renal
LOX IMVI melanoma = system: LOX IMVI melanoma
SK-OV-3 ovarian = system: SK-OV-3 ovarian
HT29 colon = system: HT29 colon
COLO 205 colon = system: COLO 205 colon
IGROV1 ovarian = system: IGROV1 ovarian
SK-MEL-28 melanoma = system: SK-MEL-28 melanoma
A498 renal = system: A498 renal
DMS 273 small cell lung = system: DMS 273 small cell lung
K-562 leukemia = system: K-562 leukemia
SF-539 CNS = system: SF-539 CNS
M19-MEL melanoma = system: M19-MEL melanoma
EKVX NSCLC = system: EKVX NSCLC
KM12 colon = system: KM12 colon
HCT-116 colon = system: HCT-116 colon
M14 melanoma = system: M14 melanoma
DLD-1 colon = system: DLD-1 colon
LXFL 529 NSCLC = system: LXFL 529 NSCLC
UACC-257 melanoma = system: UACC-257 melanoma
HOP-92 NSCLC = system: HOP-92 NSCLC
786-0 renal = system: 786-0 renal
RXF 393 renal = system: RXF 393 renal
HCT-15 colon = system: HCT-15 colon
SK-MEL-2 melanoma = system: SK-MEL-2 melanoma
DMS 114 small cell lung = system: DMS 114 small cell lung
TK-10 renal = system: TK-10 renal
SNB-78 CNS = system: SNB-78 CNS
KM20L2 colon = system: KM20L2 colon
OVCAR-8 ovarian = system: OVCAR-8 ovarian
NCI-H23 lung = system: NCI-H23 lung
SNB-19 CNS = system: SNB-19 CNS
UACC-62 melanoma = system: UACC-62 melanoma
SK-MEL-5 melanoma = system: SK-MEL-5 melanoma
SN12C renal = system: SN12C renal
U251 CNS = system: U251 CNS
SF-268 CNS = system: SF-268 CNS
MDA-MB-435 = system: MDA-MB-435
CCRF-CEM leukemia = system: CCRF-CEM leukemia
T-47D breast = system: T-47D breast
HS 578T breast = system: HS 578T breast
MCF7 breast = system: MCF7 breast
DU-145 prostate = system: DU-145 prostate
MDA-N = system: MDA-N
BT-549 breast = system: BT-549 breast
MDA-MB-231 breast = system: MDA-MB-231 breast
PC-3 prostate = system: PC-3 prostate
NCI/ADR-RES ovarian = system: NCI/ADR-RES ovarian

Measured: TGI

c1cncc(C2c3[nH]c4ccccc4c3CCN2CCCN2CCCCC2)c1 (centres undefined)
92.5 µM: MALME-3M melanoma
> 100 µM: NCI-H460 lung | HL-60(TB) leukemia | HOP-62 NSCLC | CAKI-1 renal | OVCAR-3 ovarian | XF 498 CNS | A549 NSCLC | RPMI-8226 leukemia | HCC-2998 colon | NCI-H522 lung | MOLT-4 leukemia | SNB-75 CNS | OVCAR-5 ovarian | SR leukemia | NCI-H226 lung | ACHN renal | OVCAR-4 ovarian | SF-295 CNS | SW-620 colon | UO-31 renal | LOX IMVI melanoma | SK-OV-3 ovarian | HT29 colon | COLO 205 colon | IGROV1 ovarian | A498 renal | DMS 273 small cell lung | K-562 leukemia | SF-539 CNS | M19-MEL melanoma | EKVX NSCLC | KM12 colon | HCT-116 colon | DLD-1 colon | LXFL 529 NSCLC | UACC-257 melanoma | HOP-92 NSCLC | 786-0 renal | RXF 393 renal | HCT-15 colon | SK-MEL-2 melanoma | DMS 114 small cell lung | TK-10 renal | SNB-78 CNS | KM20L2 colon | OVCAR-8 ovarian | NCI-H23 lung | SNB-19 CNS | UACC-62 melanoma | SK-MEL-5 melanoma | SN12C renal | U251 CNS
41.1 µM: M14 melanoma
47 µM: SK-MEL-28 melanoma

O=C(NNC(=S)Nc1ccccc1)C12CC3CC(CC(C3)C1)C2
60.8 µM: BT-549 breast
> 86.6 µM: NCI-H226 lung
42.6 µM: SK-MEL-5 melanoma
> 94.3 µM: HCT-116 colon
59.7 µM: NCI/ADR-RES ovarian
> 95.7 µM: HCC-2998 colon
67 µM: M14 melanoma
> 53.5 µM: CCRF-CEM leukemia
37.7 µM: HL-60(TB) leukemia
> 81.6 µM: K-562 leukemia
> 86.9 µM: SK-MEL-2 melanoma
> 100 µM: MALME-3M melanoma | SF-268 CNS | NCI-H460 lung | HOP-62 NSCLC | CAKI-1 renal | MDA-MB-435 | A549 NSCLC | RPMI-8226 leukemia | NCI-H522 lung | T-47D breast | OVCAR-5 ovarian | ACHN renal | OVCAR-4 ovarian | SF-295 CNS | SW-620 colon | UO-31 renal | SK-OV-3 ovarian | HT29 colon | HS 578T breast | IGROV1 ovarian | SK-MEL-28 melanoma | MCF7 breast | SF-539 CNS | EKVX NSCLC | KM12 colon | UACC-257 melanoma | 786-0 renal | RXF 393 renal | HCT-15 colon | DU-145 prostate | MDA-N | MDA-MB-231 breast | TK-10 renal | PC-3 prostate | OVCAR-8 ovarian | NCI-H23 lung | SNB-19 CNS | UACC-62 melanoma | SN12C renal | U251 CNS
95.8 µM: HOP-92 NSCLC
> 91.4 µM: A498 renal
> 67.7 µM: OVCAR-3 ovarian
> 91.9 µM: LOX IMVI melanoma
60 µM: MOLT-4 leukemia
22.5 µM: SR leukemia
> 73.2 µM: COLO 205 colon
> 92.9 µM: SNB-75 CNS
